The nature of one data set: in vivo. The note with it: mouse, iv. The method, then: After 15 min of centrifugation at 5,000 rpm and 4 °C, the plasma was obtained and stored at -80 °C. Plasma peptide concentrations were quantified by ELISA, and pharmacokinetic profiles were analyzed using Phoenix WinNonlin 8.1 (Pharsight Corporation, Mountain View, CA, USA). The area under the plasma concentration-time curve (AUC), distribution half-time (T1/2), maximum plasma concentration (Cmax) and time required to reach maximum plasma concentration (Tmax) values were directly determined from the experimental data. […]
bated at 37 °C for 0, 3, 6, 9, and 24 h. The portion of serum-treated peptide remaining was determined by calcu-lating the height of the respective elution peak in analytical-HPLC and comparing it with control without incuba- […]
Plasma peptide concentrations were quantified by ELISA, and pharmacokinetic profiles were analyzed using Phoenix WinNonlin 8.1 (Pharsight Corporation, Mountain View, CA, USA). The data are presented as the means ± standard deviation.

Another data set deals with MDA-MB-231-luc xenograft. In words: Tumorigenesis experiment, MDA-MB-231-luc breast cancer xenograft. Particulars: 16.68 mg/kg (molar equivalent to 2 mg/kg of PTX), tail vein twice a week, n = 5. The protocol:
All animal experiments were performed in accordance with IACUC guidelines (GIST-2019-040). For tumorigenesis experiments, anesthetized 6-week-old female NOD-scid Il2rg^-^/^- mice (NPG^TM, VITALSTAR) were inoculated in the mammary fat pad with 1 × 10^6 MDA-MB-231-luc cells in a 100 μl volume (n = 5 for each group). After tumor cell inoculation, when the tumor volume reached approximately 100 mm^3, the mice were randomly divided into the following five groups: (i) control, (ii) low-dose paclitaxel (2 mg/kg), (iii) high-dose paclitaxel (10 mg/kg), (iv) AGM-330 (16.68 mg/kg, molar equivalent to 2 mg/kg of PTX), and (v) AGM-330-PTX (19.05 mg/kg, molar equivalent to 2 mg/kg of PTX). The tumor size was measured twice a week, and the tumor volume was calculated with the following formula: volume (mm^3) = [length (mm)] × [width (mm)]^2 × 0.5. For the bioluminescent imaging experiment, D-luciferin (150 mg/kg; PerkinElmer) was intraperitoneally injected into each mouse, and an IVIS 100 imaging system (Xenogen, Corporation, Alameda, CA) was used for bioluminescent monitoring. Mice were anesthetized with vaporized isofurane (BK Pharm, Ilsan, Korea) and placed in an imaging chamber. After 10 min, each animal was imaged with an exposure time of 1 min. All bioluminescent image data were obtained using Living Image software (version 4.5.2, PerkinElmer). Photons detected from tumors were converted to average radiance values (photon/sec/cm^2/sr), which are quantitative data obtained from a region of […] (ROI) and include the photons emitted by bioluminescent cells from an assigned rectangular area over the whole body of each mouse.
A, Cell proliferation inhibition by AGM-330-PTX treatment was determined for 48 h by the WST assay in multiple breast and colorectal cancer cells and in normal cells. B, Schematic representation of the experimental protocol as described in the materials and methods section. Anesthetized 6‑week-old […] NPG mice were inoculated with a 1:1 mix of Matrigel and 1 × 10^6 MDA-MB-231-luc cells into the mammary fat pad. When the volume of primary tumors reached approximately 100 mm^3, tumor-bearing mice were treated with vehicle (PBS), PTX (2 or 10 mg/kg), AGM-330 (16.68 mg/kg, molar equivalent to 2 mg/kg of PTX), or AGM-330-PTX (19.05 mg/kg, molar equivalent to 2 mg/kg of PTX; n = 5/group). C-E, The therapeutic effect of AGM-330-PTX was evaluated in breast cancer xenograft models. C, Primary tumor volume was measured twice a week until the day of sacrifice. The primary tumor volume was calculated by the formula volume (mm^3) = (length (mm)) × (width (mm))^2 × 0.5. D, On the day of sacrifice, all primary tumors were isolated, and (E) the primary tumor weights were evaluated. F-I, Immunohistochemistry (IHC) sections of representative tumors with Ki-67 (F,H) and TUNEL (G,I) staining. Nuclei were stained with DAPI (blue). Scale bar, 50 µm. Bar graphs represent the mean ± SD, and statistical analyses were performed by one-way ANOVA with Dunnett's multiple comparison. *, **, and *** indicate P < 0.05, P < 0.01, and P < 0.001, respectively.
Following in vitro proliferation analysis on cancer lines, we investigated whether AGM-330-PTX could be a potential therapeutic agent in vivo. We inoculated MDA-MB-231-luc cells into the mammary fat pad of NPG mice. After the […] tumors grew to 100 mm^3, comparative efficacy studies were performed by dividing the animals into five groups (n = 5/group) treated with vehicle (PBS), PTX (2 or 10 mg/kg, respectively), AGM-330 (16.68 mg/kg, molar equivalent to 2 mg/kg of PTX), or AGM-330-PTX (19.05 mg/kg, molar equivalent to 2 mg/kg of PTX) twice a week by tail vein injection (Figure 5B). Tumor growth was monitored by measuring volumes twice a week with a caliber rule over the course of 3 weeks.
Figure S11. A-E, NPG TM mice bearing MDA-MB-231-luc tumors were treated twice a week for 21 days with […]

For `CSCC[C@H](NC(=O)[C@H](C)NC(=O)CNC(=O)[C@H](Cc1c[nH]cn1)NC(=O)[C@@H](N)CCCNC(=N)N)C(=O)N[C@H](C(=O)N[C@@H](Cc1ccc(O)cc1)C(=O)N[C@@H](CC(C)C)C(=O)N[C@@H](CCCCN)C(=O)NCCOCCOCCOCCOCCOCCOCCOCCOCCOCCOCCOCCOCCC(=O)NCCCC[C@H](NC(=O)CCOCCOCCOCCOCCOCCOCCOCCOCCOCCOCCOCCOCCNC(=O)[C@H](CCCCN)NC(=O)[C@H](CC(C)C)NC(=O)[C@H](Cc1ccc(O)cc1)NC(=O)[C@@H](NC(=O)[C@H](CCSC)NC(=O)[C@H](C)NC(=O)CNC(=O)[C@H](Cc1c[nH]cn1)NC(=O)[C@@H](N)CCCNC(=N)N)C(C)C)C(=O)NCCCC[C@H](NC(=O)[C@H](CCCCNC(=O)CCOCCOCCOCCOCCOCCOCCOCCOCCOCCOCCOCCOCCNC(=O)[C@H](CCCCN)NC(=O)[C@H](CC(C)C)NC(=O)[C@H](Cc1ccc(O)cc1)NC(=O)[C@@H](NC(=O)[C@H](CCSC)NC(=O)[C@H](C)NC(=O)CNC(=O)[C@H](Cc1c[nH]cn1)NC(=O)[C@@H](N)CCCNC(=N)N)C(C)C)NC(=O)CCOCCOCCOCCOCCOCCOCCOCCOCCOCCOCCOCCOCCNC(=O)[C@H](CCCCN)NC(=O)[C@H](CC(C)C)NC(=O)[C@H](Cc1ccc(O)cc1)NC(=O)[C@@H](NC(=O)[C@H](CCSC)NC(=O)[C@H](C)NC(=O)CNC(=O)[C@H](Cc1c[nH]cn1)NC(=O)[C@@H](N)CCCNC(=N)N)C(C)C)C(=O)N[C@@H](CS)C(=O)O)C(C)C` [AGM-330], in “in vivo”, the Cmax worked out at 1880 ± 670 ng/mL, the T1/2 was 566 ± 72.6 min, the Tmax is 10 min and the “peptide remaining after 24 h in vivo” value is given as “more than 25%”. Further, the “average tumor volume versus vehicle (PBS)-treated mice” value in the data set with MDA-MB-231-luc xenograft is “no significant difference”.

As a reminder, the Cmax is the highest concentration seen after dosing. Usually Tmax stands for the time from dosing to the highest level.

Source of the values: PMC7415810, “A novel nucleolin-binding peptide for Cancer Theranostics” (Theranostics, 2020).
